Assay results from patent publication US20040044304A1, “Local drug delivery using photosensitizer-mediated and electromagnetic radiation enhanced vascular permeability” (priority 2002, published 2004).

Test system: blood vessels within the dorsal window chamber
Assay type: in vivo, mice of strain C3H
Description: Male mice of strain C3H (sourced from The Jackson Laboratory, 600 Main Street, Bar Harbor, Me. 04609 USA) weighing between 28-30 gram were surgically implanted with titanium back-pack window chambers in a similar manner to that described for Syrian Golden hamsters as described above. Prior to the surgical procedure, the dorsal surface of the mouse was shaved with electric clippers (Sunbeam Oster 2-Speed, 150 Cadillac Lane, McMinnville, Tenn., 37110) and then the shaved skin covered in a depilatory cream (Nair, Carter Products, New York, N.Y., 10105) for 10 minutes to remove the remaining hair. Then a dorsal skin fold consisting of two layers of skin and muscle tissue was sandwiched between two opposing titanium frames (Campus Research Machine Shop, University of California, San Diego 9500 Gilman Drive, La Jolla, Calif.) with a 14 mm circular opening in each. Layers of skin and muscle fascia were separated from the sub-cutaneous tissue, and removed until a thin monolayer of muscle and one layer of intact skin remained. A coverglass (Type Circle 1, Part #12-545-80 sourced from Fisher Scientific, 2761 Walnut Avenue, Tustin, Calif., 92780) held by an expansion ring in the circular window of one titanium frame was then placed on the exposed tissue to allow direct microscopic visualization of the vasculature. The window in the second opposing titanium frame was left open exposing the intact skin.
Microvascular observations using an intra-vital microscope were not undertaken until at least 2 days post-chamber implantation to mitigate against post-surgical trauma, and to confirm that blood vessels within the chamber were functioning and intact and patent. A chamber was considered suitable for subsequent studies if microscopic examination of the preparation met the following criteria (as applied in Friesenecker et al., 1994):
The intra-vital microscopic studies were undertaken on un-sedated animals held in a Plexiglass tube (manufactured by Miravant Medical Technologies, Inc., 336 Bollay Drive, Santa Barbara, 93117) from which the window chamber sandwich protruded horizontally, allowing visualization of the chamber on the microscope stage. The Plexiglass tube acted to restrain the animals without impeding respiration. The intra-vital microscopy was performed using a Leitz Dialux 22 (West LA Microscope Co., Butler Avenue, Santa Monica, 90025) fitted with a Leitz Wetzlar 20× L20 lens (0.32 numerical aperture), a Leitz Wetzlar 10× Planfluotar lens (0.30 numerical aperture), a Leitz Wetzlar 4× EF lens (0.12 numerical aperture), a Leitz Wetzlar 2.5× P1 lens (0.08 numerical aperture, and an Olympus 20× Wplan water immersion lens (0.4 numerical aperture). The intra-vital microscope system used for these studies was fitted with two trans-illumination light sources and one epi-illumination light source. The two trans-illumination sources were used in the following manner. One trans-illumination light source was used for imaging the tissue within the window chamber, and the other was used as the irradiation source for activating the photosensitizer in the tissue. The imaging source was a […] mercury arc lamp (Type 307-143.004 from Ernst Leitz Wetzlar GmBH, Germany) which was powered by an HBO 100 power supply (LEP Ltd., Scarsdale, N.Y.). The output from this source was filtered using a #H43157 interference filter (Edmund Scientific, 101 East Gloucester Pike, Barrington, N.J., 08007-1380), to produce a beam of 410 nm light. The irradiation source was a Model DD4 Diode Laser (Miravant Medical Technologies 336 Bollay Drive., Santa Barbara, Calif., 93117), which produced 664 nm light.

Edema in field (mouse, in vivo, iv, 0.05 mg/kg): Mild edema in field.
Focal edema and cellular infiltrate (mouse, in vivo, iv, 0.05 mg/kg): minor areas of focal
Compound: C=Cc1c(C)c2[n]3c1=CC1=NC(=Cc4c(C)c5c([n]4[In]3[Cl])C(=C3N=C(C=2)[C@@H](C)[C@@H]3CCC(=O)OC)CC5=O)C(CC)=C1C [MV6401, indium methyl pyropheophorbide]
Extravasation of FITC-Dextran from larger vessels in field (mouse #2, MV6401 0.05 mg/kg i.v., 664 nm, 15 J/cm^2, 50 mW/cm^2, FITC-Dextran 1 day post PhotoPoint therapy): Pronounced extravasation
Extravasation of FITC-Dextran from many vessels in the treatment field (mouse #3, MV6401 0.05 mg/kg i.v., 664 nm, 20 J/cm^2, 50 mW/cm^2, FITC-Dextran 2 days post PhotoPoint therapy): flowing. Pronounced
Focal vascular damage in the treatment field, immediately post FITC-Dextran administration (mouse, in vivo, iv, 0.05 mg/kg): Some evidence of focal
Tissue damage, subsequent observation (mouse, in vivo, iv, 0.05 mg/kg): damage. Some evidence
Vascular damage, subsequent observation (mouse, in vivo, iv, 0.05 mg/kg): Pronounced focal vascular
